Results on four molecules are retold here after ChEMBL document CHEMBL1154256, “Inhibition of NF-kappaB activation and iNOS induction by ent-kaurane diterpenoids in LPS-stimulated RAW264.7 murine macrophages” (J Nat Prod, 2009).

The test system of data set [1] is RAW264.7. Put plainly: Inhibition of NF-kappaB activation in LPS-stimulated mouse RAW264.7 cells at 1 uM after 24 hrs by Western blotting. Format: cell-based.
Data set [2] in a line: (§1) Cytotoxicity against mouse RAW264.7 cells assessed as cell viability at 5 uM after 24 hrs by MTT assay. The format is cell-based. The conditions noted are these: RAW264.7 cells, read-out: Activity.
In data set [3] the test system is RAW264.7. The data set is described as §1. Format: cell-based. The conditions noted are these: raw264.7, 24 h, 5 µM.
A short description of data set [4]: (§2) Cytotoxicity against mouse RAW264.7 cells assessed as cell viability at 10 uM after 24 hrs by MTT assay. Format: cell-based. The conditions noted are these: RAW264.7 cells, read-out: Activity.
Data set [5] in a line: (§3) Cytotoxicity against mouse RAW264.7 cells assessed as cell viability at 25 uM after 24 hrs by MTT assay. The format is cell-based. The conditions noted are these: RAW264.7 cells, read-out: Activity.
The subject of data set [6] is RAW264.7. Briefly: Cytotoxicity against mouse RAW264.7 cells after 24 hrs by MTT assay. Format: cell-based. The conditions noted are these: RAW264.7, 24 h.
Data set [7] relates to RAW264.7. Briefly: Antiinflammatory activity against mouse RAW264.7 cells assessed as inhibition of LPS-induced nitrite accumulation after 24 hrs by Griess reagent method. The settings on record: for pIC50: RAW264.7, 24 h. The format is functional, cell-based.
The subject of data set [8] is RAW264.7. Put plainly: Antiinflammatory activity against mouse RAW264.7 cells assessed as inhibition of LPS-induced iNOS expression at 0.1 to 5 uM after 24 hrs by Western blotting. The format is functional, cell-based.
Data set [9] deals with RAW264.7. Put plainly: Inhibition of iNOS mRNA expression in LPS-stimulated mouse RAW264.7 cells at 5 uM after 8 hrs by RT-PCR. Format: functional, cell-based.
A short description of data set [10]: Inhibition of NF-kappaB activation in LPS-stimulated mouse RAW264.7 cells assessed as relative luciferase activity after 24 hrs by dual reporter gene assay. The format is cell-based. The conditions noted are these: RAW264.7, 24 h.
The test system of data set [11] is RAW264.7. Briefly: Inhibition of NF-kappaB p65 subunit translocation into nucleus in LPS-stimulated mouse RAW264.7 cells assessed as p65 protein level at 5 uM treated after LPS-stimulation for 24 hrs measured after 60 mins by Western blotting. The format is functional, cell-based.
For data set [12], the system named is RAW264.7. Put plainly: Inhibition of NF-kappaB p65 subunit translocation into nucleus in LPS-stimulated mouse RAW264.7 cells assessed as p65 protein level at 1 uM pretreated for 1 hr before LPS challenge after 60 mins immunofluorescence microscopy. The format is functional, cell-based.
For data set [13], the system named is RAW264.7. The description is as §2. Format: cell-based. The settings on record: raw264.7, 24 h, 10 µM.
The test system of data set [14] is RAW264.7. The data set is described as §3. Format: cell-based. The settings on record: raw264.7, 24 h, 25 µM.
In data set [15] the target is T1, Inhibitor of nuclear factor kappa-B kinase subunit beta (Mus musculus) (UniProt O88351).
T1 sequence (whole entry): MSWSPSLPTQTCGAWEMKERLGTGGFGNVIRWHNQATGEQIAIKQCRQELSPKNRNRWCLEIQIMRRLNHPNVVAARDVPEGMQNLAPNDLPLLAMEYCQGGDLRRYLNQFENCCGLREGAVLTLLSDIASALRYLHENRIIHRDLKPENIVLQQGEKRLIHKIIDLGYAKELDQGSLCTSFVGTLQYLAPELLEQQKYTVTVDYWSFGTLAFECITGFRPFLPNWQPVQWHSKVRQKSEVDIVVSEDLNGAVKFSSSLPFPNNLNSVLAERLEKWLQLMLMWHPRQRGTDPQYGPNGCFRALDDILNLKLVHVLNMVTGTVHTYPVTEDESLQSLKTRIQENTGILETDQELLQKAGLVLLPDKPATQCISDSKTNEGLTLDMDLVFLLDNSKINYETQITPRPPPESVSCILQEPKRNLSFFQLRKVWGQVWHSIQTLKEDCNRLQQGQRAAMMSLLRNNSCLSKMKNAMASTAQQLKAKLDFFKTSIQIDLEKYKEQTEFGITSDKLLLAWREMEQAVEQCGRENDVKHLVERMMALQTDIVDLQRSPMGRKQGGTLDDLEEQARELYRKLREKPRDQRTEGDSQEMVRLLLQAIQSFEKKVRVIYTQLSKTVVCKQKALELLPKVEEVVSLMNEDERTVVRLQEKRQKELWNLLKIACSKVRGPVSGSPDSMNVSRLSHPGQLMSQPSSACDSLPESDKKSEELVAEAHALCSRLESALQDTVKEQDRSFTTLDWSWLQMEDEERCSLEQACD
Briefly: Inhibition of LPS-stimulated IkappaB degradation in mouse RAW264.7 cells assessed as cellular IkappaB level at 5 uM treated after LPS-stimulation for 24 hrs measured after 60 mins by Western blotting. The format is cell-based.

Molecules are shown by their SMILES. pIC50: −log10 of the molar value. Activity calls are given as the source filed them. No cut-off for these calls is given here. A value given as a limit tells only on which side of the number the result lay.

As to `C=C1C(=O)[C@@]23[C@@H]4O[C@H]5O[C@@]2(O)[C@@H](O)[C@@H]2C(C)(C)CCC[C@]52[C@@H]3[C@@H](OC(C)=O)C[C@@H]14` [XEROPHILUSIN A], the inhibition result in the data set with RAW264.7 [1], in the data set with RAW264.7 [8] and in the data set with RAW264.7 [9] was “Active” in each case. In addition, the viability at 24 h, 5 µM in data set [2] was > 97.5%. For the same molecule, the Activity entry with RAW264.7 [3] was “Non-toxic”. Moreover, in data set [4], the viability at 24 h, 10 µM was > 97.5%. For the same molecule, in [5], the viability at 24 h, 25 µM was > 97.5%. Further, the pIC50 in the data set on RAW264.7 [6] is 4.95; in the data set on RAW264.7 [7], 6.22; in data set [10], 5.74. The inhibition result with RAW264.7 [7] is “Dose-dependent effect”. In addition, the result in the data set on RAW264.7 [11] and in the data set with RAW264.7 [12] was Active.

As to `C=C1C(=O)[C@]23[C@H](O)[C@H]1CC[C@H]2[C@]12CCC[C@@](C)(COC(C)=O)[C@H]1[C@H](O)[C@]3(O)OC2` [LONGIKAURIN B], the inhibition result with RAW264.7 [1], in the data set on RAW264.7 [8] and in the data set with RAW264.7 [9] was “Active” each time. Moreover, in data set [2], the viability at 24 h, 5 µM is > 97.5%. Besides, the viability at 24 h, 10 µM in data set [4] was > 97.5%. Also, in the data set with RAW264.7 [13], the Activity result is reported as “Non-toxic”. Further, in data set [5], the viability at 24 h, 25 µM is > 97.5%. Besides, the pIC50 in the data set with RAW264.7 [6] was 4.35; in the data set with RAW264.7 [7], 6.36; in [10], 5.92. In the data set on RAW264.7 [7], the inhibition result was “Dose-dependent effect”. The outcome with RAW264.7 [11] and in the data set on RAW264.7 [12] was Active.

Consider `C=C1C(=O)[C@@]23[C@@H]4O[C@H]5O[C@@]2(O)[C@@H](O)[C@@H]2C(C)(C)CCC[C@]52[C@@H]3CC[C@@H]14` [XEROPHILUSIN B], for which the inhibition result in the data set on RAW264.7 [1], with RAW264.7 [8] and in the data set with RAW264.7 [9] was “Active” in each case. The viability at 24 h, 5 µM in data set [2] is > 97.5%. Moreover, in the data set with RAW264.7 [3], the Activity result is listed as “Non-toxic”. Moreover, the viability at 24 h, 10 µM in data set [4] was > 97.5%. The viability at 24 h, 25 µM in [5] was > 97.5%. Further, the pIC50 in the data set with RAW264.7 [6] was 5.00; in the data set with RAW264.7 [7], 6.65; in [10], 6.15. The inhibition result in the data set with RAW264.7 [7] was “Dose-dependent effect”. Besides, the result in the data set with RAW264.7 [11] and with RAW264.7 [12] was Active.

With `C=C1C(=O)[C@]23[C@H](O)[C@H]1C[C@H](OC(C)=O)[C@H]2[C@]12CCCC(C)(C)[C@H]1C(=O)[C@]3(O)[C@H]2O` [XEROPHILUSIN F], the inhibition result in the data set with RAW264.7 [1] is “inactive”. For the same molecule, the viability at 24 h, 5 µM in data set [2] was > 97.5%. The viability at 24 h, 10 µM in [4] was > 97.5%. For the same molecule, the viability at 24 h, 25 µM in data set [5] was > 97.5%. Also, the Activity result in the data set on RAW264.7 [14] is listed as “Non-toxic”. For the same molecule, the pIC50 in the data set on RAW264.7 [6] is 4.28; in the data set on RAW264.7 [7], 6.17; in data set [10] it was 5.80. Moreover, the inhibition entry in the data set with RAW264.7 [7] was “Dose-dependent effect”. In addition, the inhibition entry in the data set with RAW264.7 [8] and with RAW264.7 [9] was “Active” in each case. The result (with RAW264.7 [11]; in data set [15]; in the data set with RAW264.7 [12]) was Active.
